The values that follow come from US10428082B2, “Triazole derivatives of melampomagnolide B and methods of use thereof” (BioVentures, LLC, priority 2016, dated 2019).

Holding throughout (assay): NCI 60 growth inhibition
Common to all, as to format: cell-based, human

One experiment has as its system OVCAR-8. The conditions noted are these: OVCAR-8, Ovarian Cancer.
The next experiment deals with SN12C. The conditions noted are these: Renal Cancer.
For the next experiment, the system named is SNB-75. Particulars: SNB-75, CNS Cancer.
The subject of a further experiment is OVCAR-4. The conditions noted are these: OVCAR-4, Ovarian Cancer.
The next experiment has as its system SF-539. Particulars: SF-539, CNS Cancer.
The subject of the next experiment is KM12. Particulars: KM12, Colon Cancer.
A further experiment relates to A549/ATCC. The conditions noted are these: Non-Small Cell Lung Cancer.
Another experiment deals with A498. The conditions noted are these: A498, Renal Cancer.
Another experiment concerns SF-295. The conditions noted are these: SF-295, CNS Cancer.
The subject of another experiment is TK-10. The conditions noted are these: TK-10, Renal Cancer.
Another experiment concerns LOX IMVI. The conditions noted are these: Melanoma.
The test system of the next experiment is SNB-19. The conditions noted are these: SNB-19, CNS Cancer.
The subject of another experiment is OVCAR-5. The conditions noted are these: OVCAR-5, Ovarian Cancer.
In the next experiment the test system is M14. Particulars: M14, Melanoma.
A further experiment has as its system BT-549. The conditions noted are these: BT-549, Breast Cancer.
The subject of the next experiment is HCT-15. The conditions noted are these: HCT-15, Colon Cancer.
Another experiment deals with MCF7. Particulars: MCF7, Breast Cancer.
In the next experiment the test system is U251. Particulars: U251, CNS Cancer.
The subject of the next experiment is UO-31. The conditions noted are these: UO-31, Renal Cancer.
A further experiment has as its system SK-MEL-5. Particulars: SK-MEL-5, Melanoma.
In another experiment the test system is HT29.
A further experiment relates to SR. The conditions noted are these: Leukemia.
For a further experiment, the system named is NCI-H522. The conditions noted are these: NCI-H522, Non-Small Cell Lung Cancer.
A further experiment relates to ACHN. Particulars: Renal Cancer.
The next experiment deals with UACC-257. Particulars: Homo sapiens; UACC-257, Melanoma, Table 2.
Setting [1] is: Homo sapiens, HT-29, Colon Cancer, Table 2.

Structures are written as SMILES.

One may read the GI50 as the concentration at which growth is held to half of that of the control. Read a high GI50 as less potent growth inhibition. For the compound `C=C1C(=O)O[C@H]2[C@H]1CC/C(Cn1cc(-c3ccc(N)cc3)nn1)=C\CC[C@@]1(C)O[C@@H]21` [JVM 4-58], the GI50 with OVCAR-8 (Table 3) amounted to 3040 nM; in the experiment with SN12C (Table 3), 3480 nM; in the experiment on SNB-75 (Table 3), 4980 nM; in the experiment with OVCAR-4 (Table 3) it was 4900 nM; with SF-539 (Table 3) it was 2770 nM; in the experiment on KM12 (Table 3) it was 11400 nM. Besides, the GI50 with A549/ATCC (Table 3) was found to be 11900 nM; in the experiment on A498 (Table 3) it was 10400 nM; with SF-295 (Table 3), 12100 nM; in the experiment with TK-10 (Table 3), 2250 nM; in the experiment with LOX IMVI (Table 3), 1510 nM; with SNB-19 (Table 3), 12700 nM. Besides, the GI50 in the experiment on OVCAR-5 (Table 3) came to 6430 nM; in the experiment on M14 (Table 3) it was 2970 nM; with BT-549 (Table 3), 3050 nM; in the experiment with HCT-15 (Table 3), 1420 nM; with MCF7 (Table 3) it was 2410 nM; with U251 (Table 3) it was 4160 nM. Moreover, the GI50 in the experiment on UO-31 (Table 3) came to 1870 nM; in the experiment on SK-MEL-5 (Table 3), 3470 nM; with HT29 (HT29, Colon Cancer, Table 3), 2140 nM; in the experiment with SR (Table 3) it was 700 nM; in the experiment with NCI-H522 (Table 3), 1370 nM; with ACHN (Table 3), 2650 nM.

As for `C=C1C(=O)O[C@H]2[C@H]1CC/C(Cn1cc(-c3ccccc3C(F)(F)F)nn1)=C\CC[C@@]1(C)O[C@@H]21` [JVM 4-59], the GI50 with OVCAR-8 (Table 3) was 2230 nM; in the experiment on SN12C (Table 3) it was 2470 nM; with SNB-75 (Table 3), 2970 nM; in the experiment on OVCAR-4 (Table 3), 2770 nM; in the experiment on SF-539 (Table 3) it was 1760 nM; in the experiment with KM12 (Table 3), 5880 nM. The GI50 in the experiment with A549/ATCC (Table 3) is 7230 nM; in the experiment with A498 (Table 3), 3860 nM; in the experiment on SF-295 (Table 3) it was 10300 nM; with TK-10 (Table 3) it was 1710 nM; in the experiment with LOX IMVI (Table 3), 1110 nM; in the experiment with SNB-19 (Table 3), 10800 nM. Further, the GI50 worked out at 2460 nM in the experiment with OVCAR-5 (Table 3); 2150 nM with M14 (Table 3); 2400 nM in the experiment on BT-549 (Table 3); 1050 nM with HCT-15 (Table 3); 1330 nM with MCF7 (Table 3); 1830 nM with U251 (Table 3). Moreover, the GI50 with UO-31 (Table 3) was 1230 nM; with SK-MEL-5 (Table 3) it was 1720 nM; in the experiment with HT29 (HT29, Colon Cancer, Table 3), 1790 nM; in the experiment on NCI-H522 (Table 3), 1380 nM; with ACHN (Table 3) it was 1450 nM.

As for `C=C1C(=O)O[C@H]2[C@H]1CC/C(Cn1cc(CCC)nn1)=C\CC[C@@]1(C)O[C@@H]21` [JVM 4-16, (1aR,7aS,10aS,10bS,E)-1a-Methyl-8-methylene-5((4-propyl-1H-1,2,3-triazol-1-yl)methyl)-2,3,6,7,7a,8,10a,10b-octahydrooxireno[2′,3′:9,10]cyclodeca[1,2-b]furan-9(1aH)-one], the GI50 with OVCAR-8 (Homo sapiens, Table 2) was determined as 13500 nM; with SN12C (Homo sapiens, Table 2) it was 12100 nM; with SNB-75 (Homo sapiens, Table 2), 18500 nM; in the experiment with OVCAR-4 (Homo sapiens, Table 2), 9460 nM; with SF-539 (Homo sapiens, Table 2), 8870 nM; with KM12 (Homo sapiens, Table 2), 17600 nM. The GI50 in the experiment with A549/ATCC (Homo sapiens, Table 2) is 22300 nM; in the experiment with A498 (Homo sapiens, Table 2), 21500 nM; in the experiment on SF-295 (Homo sapiens, Table 2) it was 18500 nM; in the experiment on TK-10 (Homo sapiens, Table 2), 3860 nM; in the experiment with LOX IMVI (Homo sapiens, Table 2) it was 3910 nM; with SNB-19 (Homo sapiens, Table 2) it was 18800 nM. Besides, the GI50 with OVCAR-5 (Homo sapiens, Table 2) was 14100 nM; with M14 (Homo sapiens, Table 2) it was 3990 nM; in the experiment on BT-549 (Homo sapiens, Table 2), 14200 nM; in the experiment with HCT-15 (Homo sapiens, Table 2), 2900 nM; with MCF7 (Homo sapiens, Table 2), 3350 nM; in the experiment with U251 (Homo sapiens, U-251, Table 2) it was 14100 nM. Besides, the GI50 with UO-31 (Homo sapiens, Table 2) turned out to be 11100 nM; in the experiment with SK-MEL-5 (Homo sapiens, Table 2), 15300 nM; with HT29 (setting [1]), 5500 nM; in the experiment on SR (Homo sapiens, Table 2) it was 2880 nM; in the experiment on NCI-H522 (Homo sapiens, Table 2), 3060 nM; in the experiment with ACHN (Homo sapiens, Table 2), 3810 nM.

Regarding `C=C1C(=O)O[C@H]2[C@H]1CC/C(Cn1cc(-c3ccccc3)nn1)=C\CC[C@@]1(C)O[C@@H]21` [JVM 3-74, (1aR,7aS,10aS,10bS,E)-1a-Methyl-8-methylene-5-((4-phenyl-1H-1,2,3-triazol-1-yl)methyl)-2,3,6,7,7a,8,10a,10b-octahydrooxireno[2′,3′:9,10]cyclodeca[1,2-b]furan-9(1aH)-one], the GI50 in the experiment with OVCAR-8 (Homo sapiens, Table 2) stood at 2310 nM; with SN12C (Homo sapiens, Table 2) it was 4500 nM; in the experiment with SNB-75 (Homo sapiens, Table 2), 6210 nM; in the experiment on OVCAR-4 (Homo sapiens, Table 2) it was 3220 nM; with SF-539 (Homo sapiens, Table 2) it was 2010 nM; in the experiment on KM12 (Homo sapiens, Table 2), 8480 nM. Further, the GI50 was 5880 nM in the experiment on A549/ATCC (Homo sapiens, Table 2); 7800 nM in the experiment with A498 (Homo sapiens, Table 2); 7890 nM with SF-295 (Homo sapiens, Table 2); 3780 nM in the experiment on UACC-257; 1210 nM in the experiment with TK-10 (Homo sapiens, Table 2); 800 nM with LOX IMVI (Homo sapiens, Table 2). The GI50 in the experiment on SNB-19 (Homo sapiens, Table 2) was 7870 nM; in the experiment with OVCAR-5 (Homo sapiens, Table 2), 5700 nM; with M14 (Homo sapiens, Table 2), 1780 nM; with BT-549 (Homo sapiens, Table 2), 2650 nM; with HCT-15 (Homo sapiens, Table 2), 770 nM; with MCF7 (Homo sapiens, Table 2), 1080 nM. Moreover, the GI50 turned out to be 7960 nM with U251 (Homo sapiens, U-251, Table 2); 870 nM in the experiment on UO-31 (Homo sapiens, Table 2); 7320 nM in the experiment with SK-MEL-5 (Homo sapiens, Table 2); 1790 nM in the experiment with HT29 (setting [1]); 1060 nM with SR (Homo sapiens, Table 2); 810 nM in the experiment on NCI-H522 (Homo sapiens, Table 2). Further, growth in the experiment with ACHN (Homo sapiens, Table 2) was halved (GI50) at 940 nM.

For `C=C1C(=O)O[C@H]2[C@H]1CC/C(Cn1cc(-c3ccsc3)nn1)=C\CC[C@@]1(C)O[C@@H]21` [JVM 4-53], the GI50 with OVCAR-8 (Table 3) was found to be 2960 nM; in the experiment on SN12C (Table 3), 2450 nM; with SNB-75 (Table 3), 3230 nM; in the experiment on OVCAR-4 (Table 3), 2480 nM; with SF-539 (Table 3), 1800 nM; with KM12 (Table 3), 6450 nM. The GI50 was determined as 8610 nM in the experiment on A549/ATCC (Table 3); 2650 nM with A498 (Table 3); 9610 nM in the experiment with SF-295 (Table 3); 1520 nM with TK-10 (Table 3); 1280 nM in the experiment on LOX IMVI (Table 3); 9490 nM in the experiment with SNB-19 (Table 3). In addition, the GI50 in the experiment with OVCAR-5 (Table 3) was 2290 nM; in the experiment on M14 (Table 3), 1930 nM; with BT-549 (Table 3), 1800 nM; with HCT-15 (Table 3) it was 1110 nM; with MCF7 (Table 3) it was 1680 nM; with U251 (Table 3), 2500 nM. Moreover, the GI50 is 1350 nM in the experiment on UO-31 (Table 3); 1830 nM in the experiment with SK-MEL-5 (Table 3); 1660 nM in the experiment with HT29 (HT29, Colon Cancer, Table 3); 560 nM in the experiment on SR (Table 3); 1390 nM with NCI-H522 (Table 3); 1320 nM with ACHN (Table 3).
